Source: ChEMBL document CHEMBL3885881, “DrugMatrix”

Species: Rattus norvegicus
Assay: DrugMatrix - Regimen: Daily Repeat
Format: toxicity, organism-based, Sprague-Dawley
Parameters: regimen Daily Repeat, gender Male, age 6-8 weeks
Details: in vivo, po, route oral GAVAGE, […]; for ABSOLUTE BASOPHIL / ABSOLUTE EOSINOPHIL / ABSOLUTE LYMPHOCYTE / ABSOLUTE MONOCYTE / ABSOLUTE SEGMENTED NEUTROPHIL / BASOPHIL / EOSINOPHIL / ERYTHROCYTE COUNT / HEMATOCRIT / HEMOGLOBIN / LEUKOCYTE COUNT / LYMPHOCYTE / MEAN CORPUSCULAR HEMOGLOBIN / MEAN CORPUSCULAR HEMOGLOBIN CONCENTRATION / MEAN CORPUSCULAR VOLUME / MONOCYTE / NEUTROPHIL / NUCLEATED RED BLOOD CELLS / PLATELET COUNT: tissue Blood; for ALANINE AMINOTRANSFERASE / ALBUMIN / ALKALINE PHOSPHATASE / ASPARTATE AMINOTRANSFERASE / BLOOD UREA NITROGEN / CARBON DIOXIDE / CHLORIDE / CHOLESTEROL / CREATINE PHOSPHOKINASE / CREATININE / GLUCOSE / LACTATE DEHYDROGENASE / LIPASE / PHOSPHORUS / POTASSIUM / SODIUM / TOTAL BILIRUBIN / TOTAL PROTEIN / URIC ACID: tissue Plasma
[1] = 5 mg/kg, 120 h, dose level Low, time 5 day
[2] = 50 mg/kg, 72 h, dose level High, time 3 day
[3] = 50 mg/kg, 120 h, dose level High, time 5 day

## O=C(Nc1ccc(Cl)c(Cl)c1)c1cc(Cl)cc(Cl)c1O [3,3',4',5-TETRACHLOROSALICYLANILIDE]
[1]
  ABSOLUTE BASOPHIL: 0 CELLS/uL
  ABSOLUTE EOSINOPHIL: 0 CELLS/uL
  ABSOLUTE LYMPHOCYTE: 11308.33 CELLS/uL
  ABSOLUTE MONOCYTE: 94.67 CELLS/uL
  ABSOLUTE SEGMENTED NEUTROPHIL: 1830.33 CELLS/uL
  BASOPHIL: 0%
  EOSINOPHIL: 0%
  ERYTHROCYTE COUNT: 5.77 x10E6/uL
  HEMATOCRIT: 35.8%
  HEMOGLOBIN: 13.8 G/DL
  LEUKOCYTE COUNT: 13.23 x10E3/uL
  LYMPHOCYTE: 85.33%
  MEAN CORPUSCULAR HEMOGLOBIN: 23.93 pg
  MEAN CORPUSCULAR HEMOGLOBIN CONCENTRATION: 38.53 G/DL
  MEAN CORPUSCULAR VOLUME: 62.1 fL
  MONOCYTE: 0.67%
  NEUTROPHIL: 14%
  NUCLEATED RED BLOOD CELLS: 0.33 /100WBC
  PLATELET COUNT: 1151 x10E3/uL
  ALANINE AMINOTRANSFERASE: 59 u/L
  ALBUMIN: 4.07 G/DL
  ALKALINE PHOSPHATASE: 368.33 u/L
  ASPARTATE AMINOTRANSFERASE: 97.67 u/L
  BLOOD UREA NITROGEN: 14.33 mg/dL
  CARBON DIOXIDE: 28.67 mmol/L
  CHLORIDE: 101.33 MEQ/L
  CHOLESTEROL: 63.33 mg/dL
  CREATINE PHOSPHOKINASE: 534.67 u/L
  CREATININE: 0.21 mg/dL
  GLUCOSE: 164 mg/dL
  LACTATE DEHYDROGENASE: 242 u/L
  LIPASE: 11.33 u/L
  PHOSPHORUS: 10.3 mg/dL
  POTASSIUM: 5.94 MEQ/L
  SODIUM: 143.17 MEQ/L
  TOTAL BILIRUBIN: 0.13 mg/dL
  TOTAL PROTEIN: 5.77 G/DL
  URIC ACID: 1.63 mg/dL
[2]
  ABSOLUTE BASOPHIL: 0 CELLS/uL
  ABSOLUTE EOSINOPHIL: 28.67 CELLS/uL
  ABSOLUTE LYMPHOCYTE: 9453.33 CELLS/uL
  ABSOLUTE MONOCYTE: 0 CELLS/uL
  ABSOLUTE SEGMENTED NEUTROPHIL: 884.67 CELLS/uL
  BASOPHIL: 0%
  EOSINOPHIL: 0.33%
  ERYTHROCYTE COUNT: 5.84 x10E6/uL
  HEMATOCRIT: 36.23%
  HEMOGLOBIN: 13.87 G/DL
  LEUKOCYTE COUNT: 10.37 x10E3/uL
  LYMPHOCYTE: 91%
  MEAN CORPUSCULAR HEMOGLOBIN: 23.83 pg
  MEAN CORPUSCULAR HEMOGLOBIN CONCENTRATION: 38.33 G/DL
  MEAN CORPUSCULAR VOLUME: 62.23 fL
  MONOCYTE: 0%
  NEUTROPHIL: 8.67%
  NUCLEATED RED BLOOD CELLS: 0 /100WBC
  PLATELET COUNT: 1272.33 x10E3/uL
  ALANINE AMINOTRANSFERASE: 61.67 u/L
  ALBUMIN: 4.1 G/DL
  ALKALINE PHOSPHATASE: 432.67 u/L
  ASPARTATE AMINOTRANSFERASE: 89.67 u/L
  BLOOD UREA NITROGEN: 13.33 mg/dL
  CARBON DIOXIDE: 31 mmol/L
  CHLORIDE: 101.67 MEQ/L
  CHOLESTEROL: 79.67 mg/dL
  CREATINE PHOSPHOKINASE: 183.67 u/L
  CREATININE: 0.21 mg/dL
  GLUCOSE: 125.67 mg/dL
  LACTATE DEHYDROGENASE: 128.33 u/L
  LIPASE: 11.33 u/L
  PHOSPHORUS: 10.67 mg/dL
  POTASSIUM: 6.23 MEQ/L
  SODIUM: 144.27 MEQ/L
  TOTAL BILIRUBIN: 0.2 mg/dL
  TOTAL PROTEIN: 5.8 G/DL
  URIC ACID: 1.03 mg/dL
[3]
  ABSOLUTE BASOPHIL: 0 CELLS/uL
  ABSOLUTE EOSINOPHIL: 19.33 CELLS/uL
  ABSOLUTE LYMPHOCYTE: 5934.67 CELLS/uL
  ABSOLUTE MONOCYTE: 58 CELLS/uL
  ABSOLUTE SEGMENTED NEUTROPHIL: 688 CELLS/uL
  BASOPHIL: 0%
  EOSINOPHIL: 0.33%
  ERYTHROCYTE COUNT: 6.18 x10E6/uL
  HEMATOCRIT: 36.87%
  HEMOGLOBIN: 14 G/DL
  LEUKOCYTE COUNT: 6.7 x10E3/uL
  LYMPHOCYTE: 88.33%
  MEAN CORPUSCULAR HEMOGLOBIN: 22.73 pg
  MEAN CORPUSCULAR HEMOGLOBIN CONCENTRATION: 38.03 G/DL
  MEAN CORPUSCULAR VOLUME: 59.67 fL
  MONOCYTE: 0.67%
  NEUTROPHIL: 10.67%
  NUCLEATED RED BLOOD CELLS: 0 /100WBC
  PLATELET COUNT: 1091 x10E3/uL
  ALANINE AMINOTRANSFERASE: 49.33 u/L
  ALBUMIN: 4.27 G/DL
  ALKALINE PHOSPHATASE: 412 u/L
  ASPARTATE AMINOTRANSFERASE: 76 u/L
  BLOOD UREA NITROGEN: 15.67 mg/dL
  CARBON DIOXIDE: 32 mmol/L
  CHLORIDE: 101 MEQ/L
  CHOLESTEROL: 77.33 mg/dL
  CREATINE PHOSPHOKINASE: 289 u/L
  CREATININE: 0.25 mg/dL
  GLUCOSE: 133.33 mg/dL
  LACTATE DEHYDROGENASE: 94.67 u/L
  LIPASE: 11.67 u/L
  PHOSPHORUS: 9.23 mg/dL
  POTASSIUM: 5.61 MEQ/L
  SODIUM: 145.93 MEQ/L
  TOTAL BILIRUBIN: 0.13 mg/dL
  TOTAL PROTEIN: 6.07 G/DL
  URIC ACID: 1.03 mg/dL
